Assay results taken from article PMC11983575, “Study on the synthesis and biological activity of kojic acid triazol thiosemicarbazide Schiff base derivatives” (Journal of Enzyme Inhibition and Medicinal Chemistry, 2025).
Entries after “also recorded” stand apart in the source; their conditions may differ.

Key:
mushroom tyrosinase = mushroom tyrosinase (Agaricus bisporus, UniProt C7FF04); assay: In vitro mushroom tyrosinase inhibition (L-DOPA substrate); format: biochemical; details: 475 nm, read-out: IC50 (μM) ± SD, inhibitory tyrosinase activity
Chain of mushroom tyrosinase (C7FF04 1-392): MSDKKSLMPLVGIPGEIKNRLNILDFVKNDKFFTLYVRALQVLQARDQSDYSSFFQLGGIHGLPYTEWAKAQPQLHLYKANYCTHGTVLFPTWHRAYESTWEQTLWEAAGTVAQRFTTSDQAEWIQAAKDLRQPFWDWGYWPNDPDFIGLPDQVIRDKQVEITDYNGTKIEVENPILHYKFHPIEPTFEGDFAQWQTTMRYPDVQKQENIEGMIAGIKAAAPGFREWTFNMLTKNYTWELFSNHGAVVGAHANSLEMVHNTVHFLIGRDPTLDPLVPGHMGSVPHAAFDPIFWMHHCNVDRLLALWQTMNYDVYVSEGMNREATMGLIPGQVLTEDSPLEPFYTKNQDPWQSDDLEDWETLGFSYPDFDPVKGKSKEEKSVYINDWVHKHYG
Description: The mushroom tyrosinase inhibitory activity was determined according to previous described method. Briefly, 168 μl of phosphate buffer (0.1 M, pH 6.8), 10 μl of mushroom tyrosinase (0.5 mg/ml, Sigma Chemical, St. Louis, MO) and 2 μl of the inhibitor solution were placed in the wells of a 96-well micro plate. After pre-incubation for 20 min at 37 °C, 20 μl of 2.0 mg/ml L-DOPA (3,4-dihydroxyphenylalanine, Sigma Chemical, St. Louis, MO) was added and the enzyme activity was measured at 475 nm every 60 s for 180 s in a Microplate Reader (Bio-Rad Laboratories, Inc., Hercules, CA). Kojic acid and phosphate buffer were respectively used as positive and negative control. The extent of inhibition by the test compounds was expressed as the percentage of concentration necessary to achieve 50% inhibition (IC50). The percentage of inhibition was calculated as follows: inhibitory rate (%) = [Ac − At)/Ac] × 100. Ac is the absorbance of the negative control and At is the absorbance of the test compound. Each concentration was analysed in three independent experiments run in triplicate. The IC50 values were determined by the data analysis software GraphPad Prism 8 (La Jolla, CA).
The tyrosinase inhibition measurements of compounds 6a–6x were carried out using L-DOPA as substrate. Kojic acid was selected as a positive control compound. […]. […] Moreover, inhibitory activity of compound with hydroxyl group at papa position is better than the inhibitory activity of compound with hydroxyl group at meta position, and inhibitory activity of compound with hydroxyl group at meta position is better than the inhibitory activity of compound with hydroxyl group at ortho position. […]. […] In addition, with the increase of atomic radius, the inhibitory activity gradually decreases. (3) The inhibitory activity of alkoxy substituted compound is better than that of alkyl substituted compound. (4) Comparing the tyrosinase inhibitory activity of compounds with halogen atom (6b–6d, 6q–6s) and compounds with methyl or methoxy (6e–6f, 6t–6u), when the hydrogen (R^2) was replaced by the methyl (R^2), the inhibitory activity was decreased.

fresh-cut apples = assay: Effects on the browning process of fresh-cut apples; design: species or system Fuji apples; details: 6w 25, 50, 100 μM; storage at 5 °C for five days; kojic acid and vitamin C 50 μM as positive controls
Description: Fuji apples were planted in Yantai, China, and were bought from Walmart supermarket in Shaoyang, China. The apples were come from the same batch having similar shapes, maturity, and without injuries, rot, diseases, or pests. Apples were cut into thin pieces with same size by using a sharp knife. Then, the fresh-cut slices were divided randomly into different groups: blank control group was immersed in ethanol for 10 min at room temperature, treatment groups were dipped in the solution of compound 6w under the same conditions, positive groups were dipped in 50 μM kojic acid and 50 μM vitamin C under the same conditions. The test samples were air-dried naturally and immediately were separately packaged with polyethylene clam-packs, and stored at 2–8 °C, and used for the following experimental measurements.
According to the reported protocol, the colour of apple samples was tested by a CR-400 Minolta […] instrument (Konica Minolta, Osaka, Japan). Three data of L*, a*, and b* were recorded for each sample. The L* values indicate lightness, the a* values show reddish-greenish, the b* values represent yellowish-bluish. The colour measurement was carried out in triplicate by random sampling.
Therefore, we further evaluated its anti-browning effect on apple, in which kojic acid and vitamin C were used as positive control. […]

tyrosinase = molecular target: T1, tyrosinase (Agaricus bisporus, UniProt C7FF04); assay: Fluorescence quenching of tyrosinase (Stern-Volmer); format: binding; details: for KSV / Kq: Stern-Volmer
T1 construct: purchased Sigma-Aldrich Chemical Co. (Shanghai, China)
T1 sequence (C7FF04 1-392 limits assumed): as the sequence (C7FF04 1-392) above
Description: To investigate fluorescence quenching role of inhibitor to the tyrosinase, fluorescence experiments were carried according to the reported method. To determine the linear concentration range of the fluorescence, compound 6w was first dissolved in DMSO. The concentration of the solution was 10 mM, and then was diluted with sodium phosphate buffer. The ultimate concentration was changed from 0 to 50 μM. A series of 3 ml solutions containing 1.5 ml of tyrosinase solution were added to a centrifuge tube and then accurately mixed with different concentrations of 6w solution range from 0 to 50 μM. Cary Eclipse G9800A fluorescence spectrophotometer (Agilent Technologies Co., Santa Clara, CA) was employed to detect the fluorescence intensity. The excitation wavelength was set to 280 nm, the bath was set as three temperatures (292 K, 298 K, and 304 K) with a scanning wavelength change from 300 to 500 nm. The excitation and emission bandwidths were 5 nm. The final tyrosinase concentration was 0.05 mg/ml.
Fluorescence quenching means that some small molecule compounds bind to protein that can affect the fluorescence intensity of the fluorophore. Therefore, in order to obtain information about conformational changes of enzymes, fluorescence spectroscopy has become a very important research tool. With increasing concentrations of compound 6w, the dramatically decreasing fluorescence intensity of tyrosinase could be found. […] At the same time, there was no significant red shift or blue shift in the fluorescence emission peak of tyrosinase after the addition of compound 6w. […] The quenching of the intrinsic fluorescence provided a direct and clear evidence that the inhibitor 6w was capable of binding to tyrosinase, and the binding of 6w to tyrosinase led to change in the microenvironment around the fluorophore, and the detailed KSV values are summarised Table 2.
Figure 3. (A) Changes in the tyrosinase fluorescence at different concentrations of compound 6w (λex = 280 nm, T = 298 K). The final enzyme concentration was 0.05 mg/ml, and c (compound 6w) = 0 μM, 5 μM, 15 μM, 20 μM, 25 μM, 30 μM, 35 μM, 40 μM, 45 μM, and 50 μM for the curves from top to bottom, respectively. (B) The Stern–Volmer figure of compound 6w and tyrosinase at 292, 298, and 304 K.

2-(1-(4-((1-((5-Hydroxy-4-oxo-4H-pyran-2-yl)methyl)-1H-1,2,3-triazol-5-yl)methoxy)phenyl)ethylidene)hydrazinecarbothioamide [Compound 6w]
IC50 (mushroom tyrosinase): 0.94 ± 0.035 µM
anti-browning effect on fresh-cut apple (L* values, colour) (fresh-cut apples): potent anti-browning agent; also recorded: better than that of kojic acid and ascorbic acid; also recorded: some anti-browning effect
fluorescence quenching mechanism (tyrosinase; 292, 298 and 304 K): dynamic quenching
KSV (tyrosinase; T 292 K): 0.03005 L/µmol
Kq (tyrosinase; T 292 K): 3.0052e+13 M⁻¹ s⁻¹
KSV (tyrosinase; T 298 K): 0.04605 L/µmol
Kq (tyrosinase; T 298 K): 4.6048e+13 M⁻¹ s⁻¹
KSV (tyrosinase; T 304 K): 0.06529 L/µmol
Kq (tyrosinase; T 304 K): 6.5292e+13 M⁻¹ s⁻¹
